Laboratory results published in patent publication US6616945B1, “Method for making a pharmaceutical formulation” (Leiras Oy, priority 1997, dated 2003).

Experiment: X-ray diffraction (XRD) study of crystallinity / amorphous content
Type: physicochemical
Experimental: FIG. 1 presents the X-ray diffraction (XRD) patterns of three salbutamol samples.
In FIG. 1, the XRD patterns of the three salbutamol samples, which were each treated differently before analysis is shown as follows:
Also the initial mean particle size had been increased close to the upper acceptable limit.
Samples of some months ago micronized material were suspended in n-heptane and stirred 7 and 16 hours at 70° C., followed by drying.
Specific surface area and the energy for moisture absorption during transfer from 0 to 80% RH were metered: […]

Substance: salbutamol sulphate
- change in amount of amorphous matter (micronized drug stored 10 hors at 40° C. and 50% RH): clear decrease
- crystallinity by XRD (stirred 7 hours at 50° C. as n-heptane suspension): slightly less
- crystallinity by XRD (stirred 7 hours at 60° C. as n-heptane suspension): practically total crystallinity
- crystallinity by XRD (stirred 7 hours at 70° C. as n-heptane suspension): practically total crystallinity
- amorphous content by XRD (untreated micronized sample): a detectable amount of the drug was amorphous
